Source: PMC9732253, “Inhibition of the Phosphatidylinositol-3 Kinase Pathway Using Bimiralisib in Loss-of-Function NOTCH1-Mutant Head and Neck Cancer” (The Oncologist, 2022)
Where “and” joins values, the source holds several entries; their conditions need not be identical. Equal entries are not always repeated. Where two headings read alike, the source gives them in different places.

Tests used:
[1] = test system: NOTCH1-mutant HNSCC; assay: Phase II single-arm trial, tumor response by RECIST 1.1 and survival; type: in vivo, human; details: for Median OS / Median PFS: all 8 patients; for Median PFS: 95% CI 39-199 days
Source text: Adults with an Eastern Cooperative Oncology Group performance status of ≤2, measurable disease according to Response Evaluation Criteria in Solid Tumors (RECIST) version 1.1,[1] and histologically confirmed recurrent or metastatic (R/M) HNSCC for which no standard curative or life-prolonging therapy was available were eligible. All patients had already received platinum chemotherapy and α-PD1 immunotherapy unless unable to tolerate them. […] Safety was continuously monitored. Demographic and clinical characteristics were summarized using univariate statistics, including mean, median, and standard deviation or frequency and percentage. Objective response rate was summarized by frequency and percentage with a 2-sided 95% […] CI.[5] Duration of response, PFS, and overall survival were analyzed using the Kaplan-Meier method.[6] All statistical analyses were performed using R statistical software (version 3.6.3, R Core Team, 2020). Survival modeling was performed using the “survival” package.[7] […] Time to response was defined as the time from first study drug administration to the first documentation of response (complete or partial). Duration of response was defined as the time from the date of the first confirmed response to the first documentation of disease progression. PFS was defined as the time from first study drug administration to disease progression or death due to any cause. Overall survival was defined as the time from first study drug administration to death due to any cause.

[2] = Phase II trial, PK analysis: pre-dose and 1 h post-dose blood levels by HPLC; type: in vivo, human; details: for Cmax: human, serum, 140 mg; for Trough: pre-dose
Method: Blood was collected before oral dose administration and 1 hour after oral dose administration on days 1, 8, 22, 43, and 64 after the start of therapy. Bimiralisib levels were determined as previously described using high-performance liquid chromatography[8-11] by Charles River Laboratories (Ashland, Ohio). The pre-dose levels were the trough levels and post-dose levels were the assumed peak serum concentration (Cmax) values. Cmax and trough accumulation ratios were calculated by dividing each patient’s treatment day concentration by their initial available drug concentration—day 1 for Cmax and day 8 for trough. Statistical differences among groups were identified by analysis of variance using Statistica version 13.1 (TIBCO Software Inc., Palo Alto, California); P < .05 was considered statistically significant

[3] = test system: pathway targets in tumor tissue; design: method as in PMID 29660598; details: therapeutic doses; cited from earlier work
[4] = test system: other protein kinases; design: method as in PMID 28829592; details: biochemical assays; cited from earlier work
[5] = cited from earlier work
[6] = test system: PI3Kβ; details: compared with PI3Kα and mTOR; cited from earlier work
[7] = test system: PI3Kα; details: cited from earlier work
[8] = test system: NOTCH1-mutant HNSCC; details: one heavily pretreated patient with NOTCH1-mutant HNSCC, thoracic metastases; cited from earlier work
[9] = number (%) of 6 patients evaluated for efficacy, RECIST 1.1

## Nc1cc(C(F)(F)F)c(-c2nc(N3CCOCC3)nc(N3CCOCC3)n2)cn1 [Bimiralisib, 5-(4,6-dimorpholino-1,3,5-triazin-2-yl)-4-(trifluoromethyl)pyridin-2-amine]
[1]; 6 evaluable patients
  Response duration: 111 days
[1]; 6 evaluable patients (1/6), RECIST 1.1, 140 mg orally on 2 consecutive days weekly, 95% CI 1-58%
  Objective response rate: 17%
[1]; CI: 83-inf
  Median TTP: 167 days (CI: 83-inf)
[1]
  Median OS: 7 months
  Median PFS: 147 days (CI: 39-199)
[1]; listed as bimiralisib
  Median PFS: 147 days
[1]; 95% CI 39 days-infinity
  Median OS: 215 days (CI: 39-inf)
[1]; 95% CI 39 days-infinity, listed as bimiralisib
  Median OS: 215 days
[1]; [9]
  Response assessment, CR: 0 (0%)
  Response assessment, PR: 1 (17%)
[1]; one patient with confirmed partial response
  Reduction in the target lesion size: 49%
[1]; one patient with progressive disease
  Day of progressive disease: 83
[1]; patient with confirmed partial response, in study until day 157
  Reduction in the target lesion size compared with baseline, final computed tomography scan: 45%
[1]; three patients with confirmed stable disease, one value each
  Day of disease progression: 91 days and 138 days and 167 days
[2]; oral, 140-mg dose, current study, read-out: Maximum Cmax value
  Cmax: 970 ng/mL
[2]; po, median, Day 1 (n = 6), 1 hour after 140 mg oral dose, read-out: C max
  Cmax: 574 ng/mL
[2]; po, median, Day 8 (n = 6), 1 hour after oral dose, read-out: C max
  Cmax: 574 ng/mL
[2]; po, median, Day 22 (n = 5), 1 hour after oral dose, read-out: C max
  Cmax: 691 ng/mL
[2]; po, median, Day 43 (n = 4), 1 hour after oral dose, read-out: C max
  Cmax: 526 ng/mL
[2]; po, median, Day 64 (n = 5), 1 hour after oral dose, read-out: C max
  Cmax: 546 ng/mL
[2]; intermittent dosing regimen
  Cmax accumulation: not observed
[2]; median, Day 8 (n = 6)
  Trough: 62 ng/mL
[2]; median, Day 8 vs day 1
  C max accumulation ratio: 0.78
[2]; median, Day 22 (n = 5)
  Trough: 101 ng/mL
[2]; median, Day 22 vs day 1
  C max accumulation ratio: 1.18
[2]; median, Day 22 vs day 8
  Trough accumulation ratio: 1.11
[2]; median, Day 43 (n = 4)
  Trough: 11.6 ng/mL
[2]; median, Day 43 vs day 1
  C max accumulation ratio: 0.82
[2]; median, Day 43 vs day 8
  Trough accumulation ratio: 0.94
[2]; median, Day 64 (n = 5)
  Trough: 139 ng/mL
[2]; median, Day 64 vs day 1
  C max accumulation ratio: 0.94
[2]; median, Day 64 vs day 8
  Trough accumulation ratio: 0.63
[3]
  Change of pathway targets in tumor tissue: marked decreases
[4]
  Inhibition of other protein kinases: does not significantly inhibit
[5]; after oral administration
  Time of maximum plasma concentration, latest: ≤ 24 h
[5]; dose of 150 mg, ref 11 (Wicki et al)
  Highest Cmax: 998 ng/mL
[5]; in vivo
  Terminal half-life: 40 h
[5]; most humans, oral
  Time of maximum plasma concentration after a dose: 1 to 2 h
[6]
  Potency against PI3Kβ: less potency
[7]
  Inhibition of PI3Kα: potently inhibits
[8]
  Duration of partial response: 9 months
